Assay results as given in patent US20040018482A1, “Loading and unloading of permeating protectants for cell, tissue, and organ cryopreservation by vitrification” (priority 1997, published 2004).

Tests used:
isolated rat heart = assay: Cardiac function of isolated rat heart (working mode reperfusion) after DMSO loading and unloading
Protocol: Preparation of the Cardiac Explant: The animal experiments were conducted in accordance with the “Principles of Laboratory Animal Care” formulated by the Institute of Laboratory Animal Resources and the “Guide for the Care and Use of Laboratory Animals” prepared by the Institute of Laboratory Animal Resources and published by the National Institute of Health (NIH Publication No. 86-23, 1985). Male Sprague-Dawley rats (300-350g) were anesthetized with sodium pentobarbital (65 mg/kg, ip) and anticoagulated with heparin (250u, iv). The heart was excised and immediately immersed in ice-cold Krebs-Henseleit buffer (KHB), which contained (in mM): 118 NaCl, 11 glucose, 25 NaHCO3, 4.7 KCl, 1.2 MgSO4, 1.2 KH2PO4, 0.5 Na-EDTA, and 2.5 CaCl2. The aorta was cannulated and the heart retrograde perfused at 70 mm Hg for 9 min. with 36.5° C. KHB equilibrated with 95% 02/[…]. The perfusion was continued for 2 min. at 60 mm Hg with CP-11E saturated with 100% 02. The composition of CP-11E (in mM) was: 125 NaCl, 7 glucose, 1.2 KH2PO4, 10 mannitol, 15 MgSO4, 14 KCl, 10 Hepes, 0.02 EDTA, 0.28 CaCl2 , pH 7.5.
After CP-11E flush, the arrested heart was transferred to a perfusion apparatus (FIG. 1). Both CP-11EB and CP-11E+DMSO+mannitol were bubbled constantly with 100% 02. Perfusate was delivered via an aortic cannula by a peristaltic pump at a flow rate of 1 ml/min. Two experiments were performed at room temperature.
Experiment 0: The heart was gradually loaded with 30 wt % DMSO and immediately unloaded. No co-solutes were used. […]
Assessment of cardiac function: Cardiac function was assessed by working mode reperfusion with KHB at 11 mm Hg preload and 70 mm Hg after load. Heart rate (HR, beats/min), aortic and coronary flow (AF and CF, ml/min.), cardiac output (CO=AF+CF, ml/min.), systolic and diastolic aortic pressure (mm Hg) were recorded. Coronary vascular resistance and work were calculated according to Neely et al., 1967 (Neely et al. “Effect of Pressure Development on Oxygen Consumption by the Isolated Rat Heart ”. Am. J. Physiology, 212:804-12, 1967).

[1] = tested on: Drosophila melanogaster embryos; settings: co-solute in ethylene glycol vitrification solution; cited from earlier work
erythrocytes = assay: Hemolysis of rat erythrocytes after step loading and unloading with ethylene glycol vitrification solution; format: cell-based; settings: added to 60 wt % EG+0.9 wt % NaCl vitrification solution; 60 min equilibration and two unloading steps; room temperature, pH 7.0; FIG. 1
Protocol: Blood was sampled from external jugular vein of rats after heart extrusion described in Example 1.
Step 1: 100 μl of blood were mixed with 100 μl of 30 wt % EG+0.9 wt % NaCl. Equilibration time 10 min.
Step 2: 1000 μl of vitrification solution vitrification solution containing mixture of 60 wt % EG+0.9 wt % NaCl with different amounts of glutamic acid monosodium Salt (GA) per gram of Vitrification solution were slowly (during 3-5 min.) added to the mixture obtained after Step 1.
After that the blood cells were equilibrated in Vitrification solution during 60 min. before unloading.
Step 1: After 60 min. equilibration in vitrification solution erythrocytes were centrifuged down (5 min. at 2000 g), 0.5 ml of supernatant was removed from each sample, and 0.5 ml of 3 wt % GA+0.9 wt % NaCl were added to each sample. […]
Concentration of free hemoglobin in supernatants collected from the samples after equilibration in Vitrification solution, first and second step of unloading was used to characterize the erythrocyte damage (hemolysis). The concentration of free hemoglobin was measured using 390 Turner spectrophotometer (at 550 nm wavelength) after adding 0.5 ml of supernatant to 3 ml of water. The hemolysis was measured as a ratio of hemoglobin concentration in the supernatants to the hemoglobin concentration in the mixture of 41.7 μl of blood with 3.5 ml water that was taken as 100% hemolysis. […]

[2] = Experiment 0: loaded to 30 wt % DMSO in 30 min, unloaded 60 min, no co-solutes (mannitol not present)

With `OC[C@@H](O)[C@@H](O)[C@H](O)[C@H](O)CO` [mannitol] the “effect of presence of mannitol on damage to the heart caused by high concentration of DMSO and changes in osmotic pressure” value (isolated rat heart; mannitol present during loading, perfusion and unloading (Experiments 1 and 2)) was “prevented damage to the heart”.

In the case of `NCC(=O)O` [glycine], the “effect on ethylene glycol permeation into embryos” value [1] is given as “significantly diminished ethylene glycol permeation”.

With `C[S+](C)[O-]` [DMSO, dimethylsulfoxide] the “recovery in function after unloading” value (isolated rat heart; [2]) was “no recovery in function” and the “state of the heart (contracture)” value (isolated rat heart; [2]) was “developed contracture”.

With `N[C@@H](CCC(=O)O)C(=O)[O-].[Na+]` [GA, glutamic acid monosodium Salt] the “effect of co-solute on erythrocyte damage (hemolysis)” value (erythrocytes) was “protects erythrocytes from damage”.

In the case of `OC[C@@H](O)[C@@H](O)[C@H](O)[C@@H](O)CO` [sorbitol], the “effect on ethylene glycol permeation into embryos” value [1] is given as “significantly diminished ethylene glycol permeation”.

In the case of `N[C@@H](CCC(=O)O)C(=O)O` [glutamic acid], the “effect on ethylene glycol permeation into embryos” value [1] is given as “significantly diminished ethylene glycol permeation”.
